According to patent EP2408450B1, “ALPHA-(N-SULFONAMIDO)ACETAMIDE COMPOUND AS AN INHIBITOR OF BETA AMYLOID PEPTIDE PRODUCTION” (Bristol-Myers Squibb Company, priority 2009, dated 2010):
Read-outs that look alike come from different tables or passages of the source. Marks after values point to notes of the source that are not given here.

What was measured:
[1] = tested on: proximal duodenum; experiment: Histopathology of the proximal duodenum (GI toxicity) in rats; assay type: in vivo, rat; settings: for Day 4 GI Tox: 4 days; for Day 7 GI Tox: 7 days; for GI Tox: 4-day
Description: Female Harlan Sprague-Dawley rats (∼200 - 250 g) were dosed daily by oral gavage with a dosing vehicle of 99% PEG-400, 1% Tween-80 at 4 mL/kg in the morning. […] All procedures were done in concordance with ACUC guidelines. […] Plasma was obtained after centrifugation. […] CSF samples were centrifuged to remove cells or debris prior to dilution at 1:2 in 4% BSA and frozen for subsequent analysis.
Following euthanasia by CO2 asphyxiation, approximately 3 cm long sections of the proximal duodenum were removed from the abdomen, rinsed with ice cold Phosphate buffered saline and placed into 10% buffered formalin prior to sectioning. Tissue sections of the duodenum were embedded in liquid paraffin, mounted onto blocks, and cut into triplicate sagittal (cross-luminal) ring sections and stained using the Periodic acid Schiff's base method prior to microscopic evaluation. All animals survived until scheduled necropsy was performed.

[2] = Compound plasma levels / AUC in rat studies; assay type: in vivo; settings: for concentration at 5 h: female, Sprague-Dawley, rat, plasma, oral
Description: All procedures were done in concordance with ACUC guidelines. […] Plasma was obtained after centrifugation. […] CSF samples were centrifuged to remove cells or debris prior to dilution at 1:2 in 4% BSA and frozen for subsequent analysis.
Animals were euthanized 12 or 24 hours after the third dose or 5 hours after the fourth dose. […] Table 2: Summary of Results from 4-day Rat Studies

[3] = tested on: mouse Notch1-ΔE; experiment: Inhibition of Notch1-ΔE signaling in Hela cells (CBF1-luciferase reporter); settings: read-out: IC50 for inhibition of Notch1-ΔE signaling
Description: The mouse Notch1-ΔE construct contains the mouse Notch1 signal sequence and the M1727V mutation within the transmembrane domain to suppress internal translation initiation.
Hela cells were maintained in DMEM (GibcoBRL) containing 10% FBS (GibcoBRL), Penicillin/Streptomycin (GibcoBRL) and 2 mM L-glutamine (GibcoBRL). Cells were transiently transfected using TransIT-HelaMONSTER (Mirus) according to the manufacturer's directions. […] The CBF1-luciferase reporter construct consists of 4X copies of the CBF1 binding element upstream of the SV40 promoter (pGL3-Promoter, Promega). […] DNA stocks were diluted in TE buffer (10 mM Tris, 1 mM EDTA, pH 8.0) for transfection. […] Test compounds were initially diluted in a 96 well polypropylene plate in 100% DMSO. […] Diluted compound solutions (10 µL) were added to the cell plate yielding a final 0.1 % DMSO concentration. Cell plates containing compound were incubated overnight at 37°C. Following this overnight incubation, media was gently removed and 25 µL of phosphate buffered saline (with calcium and magnesium) was added to each well. Luc-Screen (Applied Biosystems) reagents A and B were mixed in equal proportions and 50 µL of the mixture was added to each well. The plate was incubated at room temperature for 10 minutes before black backing was attached to the bottom of the plate and the signal was read on a TopCount (Packard). […]

[4] = tested on: brain Aβ40; experiment: Rat brain Aβ40 assay (252-TSD ELISA); assay type: in vivo; settings: for Day 7 5hr Brain Aβ40 (%Veh): 7 days; for Terminal Brain Aβ40 (%Veh) 5hr: 5 hours after the fourth dose; for Terminal Brain Aβ40 (%Veh) 12hr: 12 hours after the third dose; for Terminal Brain Aβ40 (%Veh) 24hr: 24 hours after the third dose; for brain Aβ40, % of baseline Aβ40 values: 2 to 24 hours post dosing
Description: All procedures were done in concordance with ACUC guidelines. […] Plasma was obtained after centrifugation. […] CSF samples were centrifuged to remove cells or debris prior to dilution at 1:2 in 4% BSA and frozen for subsequent analysis. […] Rat brain (half a hemisphere) was homogenized using a polytron at 4 mL/g in PBS, pH 7.8, 2% CHAPS, complete protease inhibitors (Roche). […] White Microlite II ELISA plates (Thermo Electron) were incubated with 50 µg/mL TSD9S3.2 antibody in PBS for 1 hour at 37°C. Plates were blocked with 200 µL 5% bovine serum albumin (BSA; weight/volume prepared in PBS) for 2 hours at room temperature on a plate shaker and then washed 5 times with 500 µL/well of PBS, 0.05% Tween-20. Clarified brain homogenates were loaded in 6 replicates of 50 µL per well and incubated for 1 hour at room temperature. […] Samples were normalized to a brain homogenate reference placed on each plate.

[5] = Metabolic stability in liver microsomes (rat); assay type: in vitro ADME
Description: Mouse, rat, dog, human, and cynomolgus monkey liver microsomes were obtained from BD Gentest (Woburn, MA). The lot numbers were 13 (mouse), 8 (rat), 8 (dog), 19 and 26 (human), and 3 (cynomolgus monkey). […] The reaction, conducted in triplicate, was initiated by the addition of NADPH followed by incubation at 37°C for 50 minutes. Aliquots of samples (0.25 mL) were taken at 0, 5, 10, 20, 30, 40 and 50 minutes and the reaction was quenched by the addition of 3 volumes of acetonitrile. […] The reaction, conducted in triplicate, was initiated by the addition of NADPH followed by incubation at 37 °C for 50 minutes. Aliquots of samples (0.25 mL) were taken at 0, 5, 10, 20, 30, 40 and 50 minutes and the reaction was quenched by the addition of 3 volumes of acetonitrile. […] The reaction, conducted in duplicate, was initiated by the addition of NADPH followed by incubation at 37°C for 40 minutes. Aliquots of samples (0.25 mL) were taken at 0, 5, 10, 15, 20, 30 and 40 minutes and the reaction was quenched by the addition of 3 volumes of acetonitrile. For all studies, samples were analyzed immediately by an LC/MS method.

[6] = rat, Study No. 2, 100 mg/kg/day

NC(=O)[C@@H](CCC(F)(F)F)N(Cc1ccc(-c2ncon2)cc1F)S(=O)(=O)c1ccc(Cl)cc1 [(2R)-2-[[(4-chlorophenyl)sulfonyl][[2-fluoro-4-(1,2,4-oxadiazol-3-yl)phenyl]methyl]amino]-5,5,5-trifluoropentanamide]
rats with mild lesions in duodenal tissue (histological evaluation) ([1]; 100 mg/kg/day, 4-day rat study): 1/3 | Day 4 GI Tox ([1]; Rat Study No. 3, 30 mg/kg/day): NAD | Day 7 GI Tox ([1]; Rat Study No. 3, 30 mg/kg/day): NAD | Day 4 GI Tox ([1]; Rat Study No. 3, 300 mg/kg/day): +^b | Day 7 GI Tox ([1]; Rat Study No. 3, 300 mg/kg/day): NAD | dose needed to induce GI toxicity ([1]; female, Harlan Sprague-Dawley, rat, in vivo): 100 mg/kg/day | GI Tox ([1]; rat, Study No. 2, 3 mg/kg/day): NAD | GI Tox ([1]; rat, Study No. 2, 10 mg/kg/day): NAD | GI Tox ([1]; rat, Study No. 2, 30 mg/kg/day): NAD | GI Tox [1, 6]: +^e | GI Tox ([1]; rat, Study No.1, 3 mg/kg/day): NAD | GI Tox ([1]; rat, Study No.1, 10 mg/kg/day): NAD | GI Tox ([1]; rat, Study No.1, 30 mg/kg/day): NAD | drug-related duodenal changes ([1]; rats given ≤ 30 mg/kg): No drug-related duodenal changes | microscopic evaluation of the proximal duodenum ([1]; rats, 100 mg/kg/day once daily for 4 days, 1 of 3 animals): slight goblet cell metaplasia | concentration at 5 h ([2]; 30 mg/kg/day, Rat Study No. 3, 30 mg/kg/day, group terminated Day 4, read-out: Plasma Conc. 5hr post dose Day 1): 5.9 µM | concentration at 5 h ([2]; 30 mg/kg/day, Rat Study No. 3, 30 mg/kg/day, group terminated Day 4, read-out: Plasma Conc. 5hr post dose Day 4): 5.6 µM | concentration at 5 h ([2]; 30 mg/kg/day, Rat Study No. 3, 30 mg/kg/day, group terminated Day 7, read-out: Plasma Conc. 5hr post dose Day 1): 7.2 µM | concentration at 5 h ([2]; 30 mg/kg/day, Rat Study No. 3, 30 mg/kg/day, group terminated Day 7, read-out: Plasma Conc. 5hr post dose Day 7): 6.2 µM | concentration at 5 h ([2]; 300 mg/kg/day, Rat Study No. 3, 300 mg/kg/day, group terminated Day 4, read-out: Plasma Conc. 5hr post dose Day 1): 12 µM | concentration at 5 h ([2]; 300 mg/kg/day, Rat Study No. 3, 300 mg/kg/day, group terminated Day 4, read-out: Plasma Conc. 5hr post dose Day 4): 10 µM | concentration at 5 h ([2]; 300 mg/kg/day, Rat Study No. 3, 300 mg/kg/day, group terminated Day 7, read-out: Plasma Conc. 5hr post dose Day 1): 14 µM | concentration at 5 h ([2]; 300 mg/kg/day, Rat Study No. 3, 300 mg/kg/day, group terminated Day 7, read-out: Plasma Conc. 5hr post dose Day 7): 11 µM | compound plasma levels 5 hours after the first and fourth dose ([2]; rats, 30 or 300 mg/kg/day): similar | IC50 [3]: 58 ± 23 nM | Day 7 5hr Brain Aβ40 (%Veh) ([4]; Rat Study No. 3, 30 mg/kg/day): 13%Veh | Day 7 5hr Brain Aβ40 (%Veh) ([4]; Rat Study No. 3, 300 mg/kg/day): 13%Veh | ED50 ([4]; acute rat studies, read-out: ED50 for reduction of brain Aβ40): 1 to 10 mg/kg | Brain % Aβ AUC Reduction ([4]; rat, Study No. 2, 3 mg/kg/day): 57% | Terminal Brain Aβ40 (%Veh) 5hr ([4]; rat, Study No. 2, 3 mg/kg/day): 16%Veh | Terminal Brain Aβ40 (%Veh) 12hr ([4]; rat, Study No. 2, 3 mg/kg/day): 34%Veh | Terminal Brain Aβ40 (%Veh) 24hr ([4]; rat, Study No. 2, 3 mg/kg/day): 94%Veh | Brain % Aβ AUC Reduction ([4]; rat, Study No. 2, 10 mg/kg/day): 91% | Terminal Brain Aβ40 (%Veh) 5hr ([4]; rat, Study No. 2, 10 mg/kg/day): 6%Veh | Terminal Brain Aβ40 (%Veh) 12hr ([4]; rat, Study No. 2, 10 mg/kg/day): 4%Veh | Terminal Brain Aβ40 (%Veh) 24hr ([4]; rat, Study No. 2, 10 mg/kg/day): 23%Veh | Brain % Aβ AUC Reduction ([4]; rat, Study No. 2, 30 mg/kg/day): 93% | Terminal Brain Aβ40 (%Veh) 5hr ([4]; rat, Study No. 2, 30 mg/kg/day): 6%Veh | Terminal Brain Aβ40 (%Veh) 12hr ([4]; rat, Study No. 2, 30 mg/kg/day): 4%Veh | Terminal Brain Aβ40 (%Veh) 24hr ([4]; rat, Study No. 2, 30 mg/kg/day): 15%Veh | Brain % Aβ AUC Reduction [4, 6]: 96% | Terminal Brain Aβ40 (%Veh) 5hr [4, 6]: 3%Veh | Terminal Brain Aβ40 (%Veh) 12hr [4, 6]: 3%Veh | Terminal Brain Aβ40 (%Veh) 24hr [4, 6]: 7%Veh | Brain % Aβ AUC Reduction ([4]; rat, Study No.1, 3 mg/kg/day): 49% | Terminal Brain Aβ40 (%Veh) 5hr ([4]; rat, Study No.1, 3 mg/kg/day): 39%Veh | Terminal Brain Aβ40 (%Veh) 12hr ([4]; rat, Study No.1, 3 mg/kg/day): 35%Veh | Terminal Brain Aβ40 (%Veh) 24hr ([4]; rat, Study No.1, 3 mg/kg/day): 92%Veh | Brain % Aβ AUC Reduction ([4]; rat, Study No.1, 10 mg/kg/day): 85% | Terminal Brain Aβ40 (%Veh) 5hr ([4]; rat, Study No.1, 10 mg/kg/day): 12%Veh | Terminal Brain Aβ40 (%Veh) 12hr ([4]; rat, Study No.1, 10 mg/kg/day): 9%Veh | Terminal Brain Aβ40 (%Veh) 24hr ([4]; rat, Study No.1, 10 mg/kg/day): 28%Veh | Brain % Aβ AUC Reduction ([4]; rat, Study No.1, 30 mg/kg/day): 90% | Terminal Brain Aβ40 (%Veh) 5hr ([4]; rat, Study No.1, 30 mg/kg/day): 8%Veh | Terminal Brain Aβ40 (%Veh) 12hr ([4]; rat, Study No.1, 30 mg/kg/day): 9%Veh | Terminal Brain Aβ40 (%Veh) 24hr ([4]; rat, Study No.1, 30 mg/kg/day): 13%Veh | change in brain Aβ40 ([4]; rat, single dose 1 mg/kg): did not cause a statistically significant change | brain Aβ40, % of baseline Aβ40 values ([4]; rat, single dose 10 mg/kg): less than 25% | brain Aβ40, % of vehicle control ([4]; rat, single dose 30 mg/kg): 16% | brain Aβ40, % of baseline Aβ40 values ([4]; rat, single dose 100 mg/kg): less than 25% | Brain Aβ40 levels at termination, % of the vehicle control ([4]; rats, 30 or 300 mg/kg/day, 5 hours post dose): 13% | Brain Aβ40 AUC reduction ([4]; subchronic rat studies, doses of 10 mg/kg/day or higher): greater than 85% | rate of in vitro metabolism ([5]; rat microsomes, NADPH-fortified, 1 µM): 630 pmol/min/mg protein | predicted in vivo (serum) clearance ([5]; rat, scaled from liver microsome rate): ~52 mL/min/kg
